What was measured:
Format in all cases: in vivo, human
[1] = Experiment 1: case report, levosimendan infusion added to diuretics in a person with congestive heart failure; conditions: for daily urine volume: 850-1850 ml before start
Description: Person was admitted to hospital due to congestive heart failure. In cardiac echocardiography they had ejection fraction below 30%, moderate regurgitation of mitral valve and dilative cardiomyopathy. According to coronary angiography invasive procedures such as angioplasty or coronary by-pass surgery were not possible. During the first four days at hospital they received diuretics (furosemide and spironolactone) as well as lisinopril, bisoprolol, antibiotics and allopurinol without any positive response. Their dyspnea worsened and peripheral oedema increased. Levosimendan infusion was added with the dose of 0.05 microg/kg/min and was increased to 0.1 microg/kg/min after two hours, the infusion lasted 24 hours, no bolus infusion was used due to low blood pressure. During the next day patient told that they felt better and dyspnea and periphera oedema decreased. […] The daily urine volumes varied between 850 and 1850 ml before the start of levosimendan, and increased up to 6350 ml on the day they received levosimendan, and were 3800 ml on the day after levosimendan infusion, after that they went down to normal.

[2] = Experiment 2: case report, levosimendan infusion added to vasodilators and diuretics in a person with dyspnea and lung oedema
Protocol: Person was admitted to hospital due to severely worsened dyspnea. They suffered from coronary artery disease with no possibilities for re-vascularisation. They had ejection fraction below 35%, markedly elevated end-diastolic pressure and moderate mitral regurgitation. […] They were treated with positive pressure ventilation, vasodilators and diuretics for three days without positive response. Levosimendan fusion with a bolus and continuous infusion rate up to 0.2 microg/kg/min was added. The infusion lasted 24 hours. Before the infusion their daily urinary volumes varied between 2150 and 2730 ml. On the day levosimendan was started their urinary volume was 2650 and increased to 3855, 2890 and 2790 ml during the next consecutive days, and their fluid balance was 8500 ml negative during the four next days after the infusion of levosimendan.

[3] = Experiment 3: case report, levosimendan infusion added to diuretics in a person with dilating cardiomyopathy
Protocol: Person was admitted to hospital due to worsened dyspnea. They suffered from idiopathic dilating cardiomyopathy and their left ventricular ejection fraction was 26%. They were treated with diuretics (furosemide and spironolactone) as well as perindopril, bisoprolol and digitalis without positive response for one week. Levosimendan infusion of 0.05 microg/kg/min was added. During the next 24 hours they urinated 3500 ml and during the next five days their weight decreased from 66.5 kg to 62.5 kg, although it had not changed at all before the infusion of levosimendan.

With C[C@@H]1CC(=O)NN=C1c1ccc(NN=C(C#N)C#N)cc1 [levosimendan, (−)-enantiomer of [[4-(1,4,5,6-tetrahydro-4-methyl-6-oxo-3-pyridazinyl)phenyl]hydrazono]propanedinitrile] the “urinary volumes (in words)” value ([1]; after the levosimendan infusion was added to diuretics) was “increased markedly”, the “dyspnea and peripheral oedema” value ([1]; during the next day after the levosimendan infusion was added) was “decreased” and the daily urine volume ([1]; on the day after levosimendan infusion) was 3800 mL. For the same compound, the daily urine volume ([1]; on the day they received levosimendan (0.05 then 0.1 microg/kg/min, 24 h infusion) on top of furosemide and spironolactone) was 6350 mL, the “fluid balance (negative)” value ([2]; during the four next days after the infusion of levosimendan) was 8500 mL and the daily urinary volume ([2]; first consecutive day after levosimendan start, 2150-2730 ml before infusion) was 3855 mL. The daily urinary volume ([2]; on the day levosimendan was started (bolus plus infusion up to 0.2 microg/kg/min, 24 h) on top of diuretics, 2150-2730 ml before infusion) was 2650 mL, the daily urinary volume ([2]; second consecutive day after levosimendan start) was 2890 mL and the daily urinary volume ([2]; third consecutive day after levosimendan start) was 2790 mL. For the same compound, the body weight ([3]; after the next five days, decreased from 66.5 kg, no change before the infusion) was 62.5 kg and the urine volume ([3]; during the next 24 hours after levosimendan 0.05 microg/kg/min was added to furosemide and spironolactone) was 3500 mL.

Source: patent US20080194567A1, “Combination Treatment for Enhancing Diuresis” (priority 2005, published 2008)
